Consider 2 molecules from article PMC4839570, “Novel Anthra[1,2-c][1,2,5]Thiadiazole-6,11-Diones as Promising Anticancer Lead Compounds: Biological Evaluation, Characterization & Molecular Targets Determination” (PLoS ONE, 2016).

In brackets after ≈: the same amount, converted by molar mass. Like-named read-outs stand apart in the source and are kept apart here.

In one series the test system is UACC-62. Put plainly: NCI-60 cytotoxicity screen. To be noted: for GI50 / CC50: Homo sapiens; for CC50: read-out: LC50 (the source's name). In kind it is cell-based.
Series [1] concerns Mycobacterium tuberculosis H37Rv. Put plainly: Antimycobacterial susceptibility, BACTEC MGIT 960 SIRE. In kind it is cell-based.
Another series can be described thus: Caco-2 permeability. In kind it is in vitro ADME, human. To be noted: human, Caco-2. An excerpt:
(§1) We tested both the absorptive (from the apical to basolateral compartments; A→BL) and secretory (from the basolateral to apical compartments; BL→A) permeabilities of our compound. We determined the amounts of compound transported at the specified time points and calculated the cumulative fractions [F (cum)] transported with respect to time according to the following equation [43]: F(cum)=∑^[CR(tk)−fCR(tk−1)].VR/CD.VD Where C is the concentration (μM), V is the volume (mL) of the receiver (R) or donor (D), tk is time point k, and f is the sample replacement factor calculated as f=(1−Vs/VR) , where VS is the volume of the sample (mL).
(§2) We determined the permeability coefficients as follows: Papp=(ΔF(cum)/Δt).(1/A).VD Where (ΔF(cum)/Δt) is the slope of the graph of F(cum) versus time (s), A is the area of the filter (cm^2), and VD is the volume of the donor compartment (mL).
(§3) We determined the active transport by calculating the uptake ratios and the intestinal efflux by calculating the efflux ratios using the following equations [8]: Uptake ratio=Papp(A→BL)/Papp(BL→A) Efflux ratio=Papp(BL→A)/Papp(A→BL) Where Papp(A→BL) is the absorptive permeability coefficient, and Papp(BL→A) is the secretory permeability coefficient.
(§4) The transport of our compounds through the Caco-2 cells was tested according to Hubatsch et al., 2007 [8]. Briefly, Caco-2 cells were seeded at a density of 2.6 × 10^5 cells/cm^2 onto Corning Transwell® polyester membrane inserts (1.2 cm^2 membrane diameter, 0.4 μm pore size, product #3460) in 12-well tissue culture plates and cultured in Dulbecco’s modified Eagle’s medium with high glucose (4500 mg/liter glucose) and L-glutamine (without pyruvate) supplemented with 10% FBS, 1% non-essential amino acids and 1% penicillin/streptomycin. Cells were incubated for at least 21 days at the specified conditions with the change of medium every two days. The TEER was measured using Millicell® ERS device for each insert after every change of medium to monitor the development of the cells monolayer. Cell monolayers with TEER values less than 300 Ω.cm^2 at the end of the maintenance period were not suitable for the experiment and discarded. The integrity of the cell monolayers were further confirmed by testing the phenol red permeability through the cells. The transport experiments were started by replacing the incubation culture media with the transport buffers with or without the tested compounds, the transport was tested in both directions (apical to basolateral and basolateral to apical). We used Hank’s balanced salt solution without phenol red as the transport medium buffered with either methanesulfonic acid (pH = 6.5) as the transport buffer in the apical compartment or buffered with HEPES and NaHCO3 (pH = 7.4) as the transport buffer in the basolateral compartment. NSC745885 was dissolved in the transport buffers with the aid of 1% DMSO to get final concentrations between 4–5 μM. Samples from the receiver compartments were withdrawn at different time intervals (0 min, 30 min, 45 min, 60 min, 75 min, 90 min, 120 min) and the amounts of transported drug were determined using the HPLC. After the transport experiments, the TEER was checked for every cell monolayer to assure that the monolayers were not compromised from the effect of the tested drug. The apparent permeabilities were calculated as mentioned in the previous section.

Series [2] deals with human intestinal Caco-2 cells. Put plainly: Caco-2 permeability. In kind it is in vitro ADME.
Excerpt: as §1, §2, §3, §4

For a further series, the system named is MGH-U1R cell line. More on the design: method as in PMID 25431950. Conditions: MGH-U1R; cited from earlier work.
Another series concerns MGH-U1 cells. More on the design: method as in PMID 25431950. Conditions: cited from earlier work.
[3] abbreviates: Fig 7, read-out: mean log10 of the GI50 values (converted).

As usually defined, the GI50 is the concentration at which growth is held to half of that of the control. The TGI is the concentration giving total growth inhibition. A higher TGI goes with lower sensitivity of the cells. Usually MIC stands for the lowest concentration that inhibits growth of the organism. Low values mean greater potency, high ones weaker potency. In the case of `O=C1c2ccccc2C(=O)c2c1cc(Cl)c1nsnc21` [NSC757963], the GI50 in the series with UACC-62 (setting [3]) is 3.47 µM; in the series on UACC-62 (five-dose, read-out: GI50), 4.43 µM. In addition, the CC50 in the series on UACC-62 (five-dose) was found to be 41.8 µM. This molecule came in with a TGI with UACC-62 (five-dose) of 17.0 µM. Also, the “Effect on M. tuberculosis H37Rv” value is recorded as “Growth” in series [1] (1.25 μg/mL); “Growth” in series [1] (2.5 μg/mL); “Growth” in series [1] (5 μg/mL); “Growth” in series [1] (7.5 μg/mL); “Inhibition” in series [1] (10 μg/mL); “Inhibition” in series [1] (15 μg/mL). Also, in series [1] (20 μg/mL), the “Effect on M. tuberculosis H37Rv” value is reported as “Inhibition”. For the same molecule, 10 µg/mL (≈ 33.3 µM) was the least that counted as inhibitory in series [1] (Mycobacterium tuberculosis, 336 h, H37Rv, 14 days) (MIC).

In general, efflux ratio refers to the permeability from basolateral to apical divided by that in the opposite direction, in the common usage. `O=C1c2ccccc2C(=O)c2c1ccc1nsnc21` [NSC745885, anthra[1,2-c][1,2,5]thiadiazole-6,11-dione]: the GI50 is 1.82 µM in the series on UACC-62 (setting [3]) and 1.45 µM with UACC-62 (five-dose, read-out: GI50). Also, the CC50 with UACC-62 (five-dose) was 5.79 µM. Further, in the series with UACC-62 (five-dose), the TGI stood at 2.90 µM. Besides, the Papp A→B at 120 min in “Caco-2 permeability” (4–5 μM, apical pH 6.5, basolateral pH 7.4, read-out: Absorptive permeability Papp(A→BL)) came to 31.8 ×10⁻⁶ cm/s. The Papp B→A at 120 min in the series “Caco-2 permeability” (4–5 μM, apical pH 6.5, basolateral pH 7.4, read-out: Secretory permeability Papp(BL→A)) was determined as 35.4 ×10⁻⁶ cm/s. Further, the efflux ratio at 120 min in “Caco-2 permeability” (Papp(BL→A)/Papp(A→BL)) was determined as 1.11. In series [2], the Permeability ranking entry is on record as “High; completely absorbed”. In series [2] (Papp(A→BL)/Papp(BL→A)), the Uptake ratio was determined as 0.898. Also, the “concentration that completely suppressed growth of the resistant cell line” value in the series on MGH-U1R cell line is 2.5 µM. Further, in the series on MGH-U1 cells, the “concentration that inhibited the non-resistant cells” value is 2.5 µM.
